Data as given in publication PMC12675575, “A BRET biosensor for measuring uncompetitive engagement of PRMT5 complexes in cells” (Nature Communications, 2025).
Where “and” joins values, the source holds several entries; their conditions need not be identical. Identical values can stand only once.

Legend:
RIPK2 = biological target: T1, RIPK2 (Homo sapiens, UniProt O43353); assay: CBH-002 affinity curve, HEK293, RIPK2-NL fusion (cytosolic control); assay type: cell-based; set-up: BRET, CBH-002 + DMSO / BRET, CBH-002 + GSK3326595: unit not given here; conditions: for BRET, CBH-002 + DMSO / BRET, CBH-002 + GSK3326595: Figure S2E RIPK2-NL, log([CBH-002])
T1 construct: host or cells: HEK293
T1 sequence (O43353 whole entry, the tested form may be a part): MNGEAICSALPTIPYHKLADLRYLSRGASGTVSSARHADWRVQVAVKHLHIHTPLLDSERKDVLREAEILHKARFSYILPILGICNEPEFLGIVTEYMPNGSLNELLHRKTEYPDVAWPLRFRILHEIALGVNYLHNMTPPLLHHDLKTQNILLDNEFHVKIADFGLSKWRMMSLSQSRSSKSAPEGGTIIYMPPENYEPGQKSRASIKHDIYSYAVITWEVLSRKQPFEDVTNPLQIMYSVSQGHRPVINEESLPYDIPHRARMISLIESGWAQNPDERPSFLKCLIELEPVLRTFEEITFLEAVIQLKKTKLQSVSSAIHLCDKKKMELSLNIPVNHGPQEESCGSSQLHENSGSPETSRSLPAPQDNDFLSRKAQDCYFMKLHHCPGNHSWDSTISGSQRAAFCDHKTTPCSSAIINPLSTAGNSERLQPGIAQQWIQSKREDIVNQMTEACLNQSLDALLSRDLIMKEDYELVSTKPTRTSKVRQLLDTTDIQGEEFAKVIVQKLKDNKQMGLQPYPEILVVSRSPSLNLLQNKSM
Protocol: (§1) HEK293 cells (ATCC) were cultured in DMEM (Thermo Fisher) + 10% (v/v) FBS (Seredigm), and HCT116 cells (Horizon Discovery, #PAR-034 and #R02-033) were cultured in McCoy’s 5A (Thermo Fisher) + 10% FBS, with incubation in a humidified, 37 °C/5% CO2 incubator. Cells were split 1–3 days prior to performing experiments and used at roughly 80% confluency. […] Cells were transfected according to the manufacturer’s protocol using FuGENE HD (Promega). NanoLuc fusion DNA was diluted into Transfection Carrier DNA (Promega) in Opti-MEM at a ratio of 1:9 (mass/mass), and FuGENE HD was added at a ratio of 1:3 (μg DNA:μL lipid). For experiments using WDR77, untagged WDR77 DNA (Promega) was used in place of Carrier DNA. Formed complexes were combined with cells resuspended to a density of 2 × 10^5 cells/mL in Opti-MEM + 1% FBS at a ratio of 1:20 (vol:vol). Cells were plated into a flask and incubated at 37 °C in a humidified 5% CO2 atmosphere for 18–24 h, before being lifted and seeded into 96-well non-binding surface-treated plates (Corning). Cells were seeded at a density of 2 × 10^5 cells/mL in Opti-MEM + 1% FBS in 100 μL (96-well). The BRET probe CBH-002 was prepared first as a 100× stock in 100% DMSO (Sigma) and then diluted to a 20× stock in NanoBRET Tracer Dilution buffer (Promega). Test compounds were prepared as 1000× stocks in 100% DMSO and diluted to 10× stocks in Opti-MEM to prepare working stocks. […] NanoBRET Complete 3x Substrate was prepared by combining Nano-Glo Substrate and Extracellular NanoLuc Inhibitor in Opti-MEM, according to the manufacturer’s protocol (Promega). NanoBRET Complete 3× Substrate was added to cells and plates were measured on either a PheraSTAR FSX equipped with 450 nm (donor) and 610 nm (acceptor) filters, or a GloMAX Discover equipped with 450/8 nm BP (donor) and 600 nm LP (acceptor) filters, using a 0.3 s integration time.
(§2) EC50 values were obtained by fitting the BRET probe and compound affinity curves to a sigmoidal four-parameter fit model in Graphpad Prism:1 Y=Ymin+Ymax−Ymin/1+10^LogEC50−Xh where h is the Hill Slope.

PRMT9 = biological target: T2, PRMT9 (Homo sapiens, UniProt Q6P2P2); assay: CBH-002 affinity curve, HEK293, PRMT9-NL fusion; assay type: cell-based; set-up: BRET, CBH-002 + DMSO / BRET, CBH-002 + GSK3326595: unit not given here; conditions: for BRET, CBH-002 + DMSO / BRET, CBH-002 + GSK3326595: Figure S2D PRMT9-NL, log([CBH-002])
T2 construct: host or cells: HEK293
T2 sequence (Q6P2P2 1-845): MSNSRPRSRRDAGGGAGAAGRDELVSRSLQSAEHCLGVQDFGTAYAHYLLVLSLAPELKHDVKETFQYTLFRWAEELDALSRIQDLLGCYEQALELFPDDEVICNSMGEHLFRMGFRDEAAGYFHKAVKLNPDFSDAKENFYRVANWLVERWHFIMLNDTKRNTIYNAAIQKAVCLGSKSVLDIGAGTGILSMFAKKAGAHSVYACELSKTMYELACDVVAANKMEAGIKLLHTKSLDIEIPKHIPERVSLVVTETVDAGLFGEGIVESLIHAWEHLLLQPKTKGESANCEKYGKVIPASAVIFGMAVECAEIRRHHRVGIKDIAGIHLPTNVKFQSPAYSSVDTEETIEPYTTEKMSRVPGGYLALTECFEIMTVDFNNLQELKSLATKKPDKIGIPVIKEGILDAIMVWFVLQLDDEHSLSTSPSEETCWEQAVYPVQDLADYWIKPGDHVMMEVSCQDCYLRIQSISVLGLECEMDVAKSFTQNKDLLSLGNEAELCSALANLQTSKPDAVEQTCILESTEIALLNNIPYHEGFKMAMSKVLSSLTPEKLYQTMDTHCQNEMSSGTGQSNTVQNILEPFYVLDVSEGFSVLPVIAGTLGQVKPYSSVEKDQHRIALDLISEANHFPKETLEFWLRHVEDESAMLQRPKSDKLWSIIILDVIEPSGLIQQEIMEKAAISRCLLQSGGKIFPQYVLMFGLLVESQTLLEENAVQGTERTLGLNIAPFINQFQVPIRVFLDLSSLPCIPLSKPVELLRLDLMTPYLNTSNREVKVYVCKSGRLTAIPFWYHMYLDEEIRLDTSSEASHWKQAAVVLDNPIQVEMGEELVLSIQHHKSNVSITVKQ
Protocol: as §1, §2

In the case of O=C(CCc1ccc2n1[B-](F)(F)[N+]1=C(c3ccc[nH]3)C=CC1=C2)NCCCCC(=O)N1CCC(Nc2cc(C(=O)NC[C@H](O)CN3CCc4ccccc4C3)ncn2)CC1 [CBH-002], the “BRET, CBH-002 + DMSO” value (RIPK2; uM 0.04576) is reported as 1.852 and 1.939 and 2.142, the “BRET, CBH-002 + GSK3326595” value (RIPK2; uM 0.04576) is reported as 1.842 and 1.813 and 1.9392 and the “BRET, CBH-002 + DMSO” value (RIPK2; uM 0.52288) is reported as 5.1141 and 4.646 and 5.258. The “BRET, CBH-002 + GSK3326595” value (RIPK2; uM 0.52288) was 4.515 and 4.266 and 4.4734, the “BRET, CBH-002 + DMSO” value (RIPK2; uM 1) was 11.7522 and 11.9286 and 12.3306 and the “BRET, CBH-002 + GSK3326595” value (RIPK2; uM 1) was 11.5342 and 11.3369 and 11.377. For the same compound, the “BRET, CBH-002 + DMSO” value (RIPK2; uM -0.43136) was 0.8543 and 0.8172 and 0.8282, the “BRET, CBH-002 + GSK3326595” value (RIPK2; uM -0.43136) was 0.5912 and 0.5546 and 0.9723 and the “CBH-002 engagement at RIPK2” value (RIPK2; HEK293, RIPK2-NL) was “did not show engagement”. The “BRET, CBH-002 + DMSO” value (PRMT9; uM 0.04576) was 3.434 and 3.347 and 3.1287, the “BRET, CBH-002 + GSK3326595” value (PRMT9; uM 0.04576) was 3.008 and 3.39 and 2.997 and the “BRET, CBH-002 + DMSO” value (PRMT9; uM 0.52288) was 4.122 and 5.87 and 4.53. The “BRET, CBH-002 + GSK3326595” value (PRMT9; uM 0.52288) was 5.212 and 4.497 and 4.8771, the “BRET, CBH-002 + DMSO” value (PRMT9; uM 1) was 6.91 and 7.001 and 6.884 and the “BRET, CBH-002 + GSK3326595” value (PRMT9; uM 1) was 6.307 and 7.343 and 6.276. The “BRET, CBH-002 + DMSO” value (PRMT9; uM -0.43136) was 2.433 and 2.903 and 2.863, the “BRET, CBH-002 + GSK3326595” value (PRMT9; uM -0.43136) was 2.897 and 2.374 and 2.8944 and the “BRET, CBH-002 + DMSO” value (PRMT9; uM -0.90849) was 2.344 and 2.202 and 2.303. The “BRET, CBH-002 + GSK3326595” value (PRMT9; uM -0.90849) was 2.454 and 2.214 and 2.074, the “BRET, CBH-002 + DMSO” value (PRMT9; uM -1.20952) was 1.839 and 2.321 and 2.413 and the “BRET, CBH-002 + GSK3326595” value (PRMT9; uM -1.20952) was 2.422 and 2.062 and 3.074. For the same compound, the “BRET, CBH-002 + DMSO” value (PRMT9; uM -1.68664) was 1.998 and 2.054 and 2.063, the “BRET, CBH-002 + GSK3326595” value (PRMT9; uM -1.68664) was 2.126 and 2.181 and 2.003 and the “BRET, CBH-002 + DMSO” value (PRMT9; uM -1.98767) was 2.1788 and 2.218 and 2.268. The “BRET, CBH-002 + GSK3326595” value (PRMT9; uM -1.98767) was 2.04 and 1.965 and 2.075, the “BRET, CBH-002 + GSK3326595” value (PRMT9; uM -2.46479) was 2.072 and 1.988 and 1.944 and the “BRET, CBH-002 + DMSO” value (PRMT9; uM -2.94191) was 1.888 and 2.124 and 2.713. For the same compound, the “BRET, CBH-002 + GSK3326595” value (PRMT9; uM -2.94191) was 1.993 and 2.159 and 2.4012 and the “CBH-002 engagement at PRMT9” value (PRMT9; HEK293, PRMT9-NL) was “did not show engagement”.
